Reference: patent publication US7452965B2, “Colon tumor specific binding peptides” (University of Utah Research Foundation, priority 2002, dated 2008)
Read-outs that look alike come from different tables or passages of the source. Values belong to the compound of their own block, whether it stands above or below them. Bridge positions count the residues as written; N and C are the ends. Square brackets hold non-standard residues; d marks the D form. Ends that are not written are not given here. Peptide text beside a SMILES is read from it.

Tests used:
HT29 cells [1] = conditions: for ability of peptide to compete RPM (CPIEDRPMC) phage binding to HT29 cells: peptide 0-1000 μM; for ability of peptide to compete RPM (CPIEDRPMC) phage binding to HT29 cells / level of RPM associated phage binding to HT29 cells in presence of competitor: 4° C.; for shift of EC50 of competition relative to RPM peptide: alanine mutants vs RPM peptide; for level of RPM associated phage binding to HT29 cells in presence of competitor: percentage of phage bound in absence of competitor
Description: Phage binding assay. HT29 cells were incubated with peptide in binding buffer at concentrations of 0, 0.1, 1, 10, 100, or 1000 μM for 30 minutes at 4° C. After 30 minutes of incubation, 10^10 pfu of phage were added to the cells and incubated at 4° C. for an additional 45 minutes. Following incubation, cells were washed 6× with wash buffer and the phage remaining bound were eluted with glycine. The number of phage bound to the cells was quantified with real time PCR.
To determine whether […] (SEQ ID NO: 134) displaying phage bind to HT29 cells specifically, a competition assay was performed using phage and synthetic peptides, peptides corresponding to the specific sequence, […] (SEQ ID NO: 134), and the non-specific sequence, […] (SEQ ID NO: 135), were synthesized by standard methods and oxidized to form a disulfide bond. Reaction of the peptides before and after oxidation with ElIman's reagent was performed to verify presence of the disulfide bond. […] In FIG. 2A, HT29 cells were incubated with increasing log concentrations of […] (SEQ ID NO: 134) peptide and with a constant number of either specific or non-specific phage. The number of phage binding to the HT29 cells was quantified and the percentage binding calculated based on the number of phage that bind in the absence of competitor. The sequence […] The reciprocal experiment was also done with HT29 cells incubated with increasing log concentrations of specific or non-specific peptide and a constant concentration of phage displaying the peptide […] (SEQ ID NO: 134).
The phage selection procedure produced naturally occurring substitution mutants so the phage and the peptide could be used to determine a functional consensus sequence for the family. HT29 cells were incubated with increasing log concentrations of […] (SEQ ID NO: 134) peptide and a constant number of phage displaying one of the sequences were selected.
To examine the importance of each residue within the RPM sequence for binding to HT29 cells, peptides were synthesized having alanine mutations in either the arginine, proline, or methionine residue and used in phage competition assay as described above.

HCT116 cells = test: MTT cell viability after RPM-KLAK or KLAK; type: cell-based; conditions: 72 hours at 37° C.
Description: (§1) RPM-KLAK (SEQ ID NO: 132) and KLAK (SEQ ID NO: 133) on HT29 and HCT116 cells. HT29 and HCT116 cells were incubated with increasing log concentrations of RPM-KLAK (SEQ ID NO: 132) or KLAK (SEQ ID NO: 133) for 72 hours at 37° C. After incubation, MTT was added to a final concentration of […] and incubated at 37° C. for 1 hour. The media/MTT was removed carefully and the cells dissolved with 0.1N HCl in isopropanol. Absorbance was read on a plate reader (Cytofluor II, Perceptive Biosystems) at 570 nm.
(§2) Since RPM-FITC is internalized at 37° C., RPM may be used to deliver a toxin to HT29 cells. […] Cells that were incubated with (KLAK)2 (SEQ ID NO: 138) alone or with free peptide were refractory to death induced by the toxin. However, when a peptide that was specific and also internalized by cells was conjugated to (KLAK)2 (SEQ ID NO: 138), the cells were killed. RPM was coupled to (KLAK)2 (SEQ ID NO: 138) and incubated with HT29 and HCT116 cells with either (KLAK)2 (SEQ ID NO: 138) alone as a negative control or RPM-(KLAK)2 (SEQ ID NO: 5). Cells were treated for 72 hours at 37° C. At the end of the incubation, cell viability was measured by MTT assay. […] This was indeed observed for HCT116 incubation with RPM (KLALK)2 (SEQ ID NO: 5) (FIG. 6B).

HT29 cells [2] = test: MTT cell viability after RPM-KLAK or KLAK; type: cell-based; conditions: 72 hours at 37° C.
Description: as §1, §2

[3] = test system: lung and liver cancer, grossly uninvolved lung, liver, and stomach; test: Peptide-binding assay on frozen tissue sections; set-up: species or system human; conditions: cryostat sections
Description: (§3) A biopsy of sporadic colon adenocarcinoma, liver and lung sarcoma, and grossly uninvolved colon, liver, lung, and stomach were frozen in optimum cutting temperature (OCT) and […] cryostat sections placed on glass slides. Sections were stained with H&E and untreated adjacent sections were incubated with RPM-FITC. After incubating with RPM-FITC in binding buffer for 45 minutes at 4° C., slides were washed and mounted using Pro-Long Anti-Fade (Molecular Probes). Nuclei were visualized by a quick incubation with Topro-3 (Molecular Probes) present in the last wash. Samples were analyzed by confocal microscopy.
To determine whether RPM-FITC was able to bind cancers originated from tissues other than colon or to other normal tissues, a peptide-binding assay was performed on cryostat sections of lung and liver cancer, and grossly uninvolved lung, liver, and stomach. As a positive control, a section of colon tumor was stained in parallel with the other sections. […] Binding to HT29 Cells is Dependent on the Amino Acids, RPMC-C (SEQ ID NO: 136).

HT29 cells [4] = test: RPM-FITC immunofluorescence staining of cultured cells (confocal microscopy); type: cell-based
Description: Cell Culture: HT29, HCT116, or a 50% mixture of HT29 and HCT116 cells were plated on glass slides (Nalge). Wells were incubated with 10 μM of RPM-FITC peptide for 45 minutes at 4° C. or 37° C. After washing with wash buffer, cells were blocked with 1% NGS, 0.1% BSA, 0.1% Triton-X100 in PBS. Following the blocking step, wells were incubated with the polyclonal p53 antibody, D10, (Santa Cruz) for 1 hour at room temperature. The wells were washed and incubated with the secondary antibodies GαFITC Alexa 488 (Molecular Probes) and GαMouse Alexa 647 (Molecular Probes) and the nuclear stain Topro-3 (Molecular Probes). Wells were washed and mounted using Pro-Long Anti-fade (Molecular Probes). Slides were analyzed by confocal microscopy.
The peptide then was tested to determine whether it was able to differentiate HT29 from HCT116 cells. In order to distinguish HT29 from HCT116 cells in our immunohistochemical assays, staining was carried out in the presence of the transcription factor, p53. Staining for the protein p53 is a way to visually discriminate HT29 from HCT116 cells, since p53 is mutated and accumulates in HT29 cells but is wild type in HCT116 cells and thus, is rapidly degraded. […] To test the ability of the fluorescein conjugated peptide (RPM-FITC) to preferentially bind HT29 cells, HT29 and HCT116 cells were stained with RPM-FITC. […] When a mixture of HT29 and HCT116 cells was incubated with RPM-FITC and concurrently analyzed for the presence of p53, cells with the highest level of p53 protein also bound RPM-FITC (FIG. 5A).
The ability of a molecule to translocate across the cell membrane is important for drug delivery. HT29 cells were incubated for 1 hour at either 4° C. or 37° C. in the presence of 100 uM RPM-FITC. After incubation, cells were washed, fixed with 2% paraformaldehyde, then incubated with an anti-FITC secondary antibody to amplify the fluorescence signal.

human colon tumor = test: Peptide-binding assay on frozen tissue sections
Description: as §3

HT29 cells [5] = test: Protease assay: RPM phage binding to protease-treated cells; conditions: 37° C.
Description: HT29 cells were incubated at 37° C. with either active or boiled Collagenase diluted 1:20 for 10 minutes, Trypsin-EDTA 0.25% (Gibco) for 5 minutes or Proteinase K (Gibco) diluted 1:600 for 1 minute. After incubation, cells were then incubated with RPM bearing phage as described above. The number of phage remaining bound was quantified by real time PCR.
(§4) In order to further this observation, HT29 cells were treated with active or boiled proteases to determine the effect of treatment on the ability of an RPM displaying phage to bind. HT29 cells were treated with active or boiled collagenase for 15 minutes, trypsin for 5 minutes, or proteinase K for 0.5 minutes at 37° C. After protease treatment, cells were washed, then an equal number of phage were added and allowed to bind. […] The decrease in phage binding to the HT29 cells was due to the protease activity since boiling the proteases abolished the effect with phage binding returning to levels of that observed for PBS treated cells (FIG. 6B). […] After treating HT29 cells with proteases as described above, MTT was added to the cells and incubated for 45 minutes at 37° C. After incubation, the cells were solubilized with 0.1N HCl in isopropanol and the absorbance due to MTT incorporation was determined.

HT29 cells [6] = test: MTT viability of protease-treated cells; type: cell-based; conditions: MTT 45 minutes at 37° C. after protease treatment
Description: as §4

Compound: A11 D RPM: RPM peptide consisting of all D amino acids ([dC][dP][dI][dE][dD][dR][dP][dM][dC]; cysteine pairing not given here)
ability of peptide to compete RPM (CPIEDRPMC) phage binding to HT29 cells (HT29 cells [1]): not able to compete | ability of peptide to compete RPM (CPIEDRPMC) phage binding to HT29 cells (HT29 cells [1]; listed as peptide synthesized with all D amino acids): failed to compete

Compound: (KLAK)2: antimicrobial toxin that selectively disrupts the mitochondrial membrane of eukaryotic cells, SEQ ID NO: 138 / 133 (KLAKKLAK) [reference compound]
effect on HCT116 cell viability (HCT116 cells): did not effect the viability | effect on HT29 cell viability (HT29 cells [2]): did not effect the viability

EC50 (HT29 cells [1]): 690 µM | shift of EC50 of competition relative to RPM peptide (HT29 cells [1]): ~100 fold
Compound: CC[C@H](C)[C@@H]1NC(=O)[C@@H]2CCCN2C(=O)[C@@H](N)CSSC[C@@H](C(=O)O)NC(=O)[C@H](CCSC)NC(=O)[C@@H]2CCCN2C(=O)[C@H](C)NC(=O)[C@H](CC(=O)O)NC(=O)[C@H](CCC(=O)O)NC1=O [APM] (H-CPIEDAPMC-OH; disulfide 1-9 (inferred); N-terminus and C-terminus assumed)

Compound: CC[C@H](C)[C@@H]1NC(=O)[C@@H]2CCCN2C(=O)[C@@H](N)CSSC[C@@H](C(=O)O)NC(=O)[C@H](CCSC)NC(=O)[C@@H]2CCCN2C(=O)[C@H](CCCNC(=N)N)NC(=O)[C@H](CC(=O)O)NC(=O)[C@H](CCC(=O)O)NC1=O [CPIEDRPMC, cys-pro-ile-glu-asp-arg-pro-met-cys] (H-CPIEDRPMC-OH; disulfide 1-9)
labeling of lung and liver cancer and uninvolved lung, liver, stomach [3]: failed to stain | effect of unlabeled competitor on RPM-FITC staining of HT29 cells (HT29 cells [4]): able to abolish | ability of peptide to compete RPM (CPIEDRPMC) phage binding to HT29 cells (HT29 cells [1]): able to compete | ability of peptide to compete RPM (CPIEDRPMC) phage binding to HT29 cells (HT29 cells [1]; listed as RPM peptide): successfully abolished binding | level of RPM associated phage binding to HT29 cells in presence of competitor (HT29 cells [1]): less than 4% | EC50 (HT29 cells [1]; read-out: EC50 of competition, competition of RPM displaying phage on HT29 cells): 5 µM | effect of unlabeled competitor on RPM-FITC binding to colon tumor (human colon tumor): abrogate binding

Compound: collagenase
decrease of RPM phage binding to active protease treated HT29 cells (HT29 cells [5]): 85% | average absorbance (MTT incorporation) of treated cells (HT29 cells [6]): 0.189

Compound: RPM middle: peptide bearing the RPM motif in the middle of the peptide, CPIRPMEDC (SEQ ID NO: 137)
fold less potent than RPM in competing with phage for HT29 cell binding (HT29 cells [1]; compared to RPM): over 100 fold | ability of peptide to compete RPM (CPIEDRPMC) phage binding to HT29 cells (HT29 cells [1]): failed to compete

EC50 (HT29 cells [1]): 545 µM | shift of EC50 of competition relative to RPM peptide (HT29 cells [1]): ~100 fold
Compound: CC[C@H](C)[C@@H]1NC(=O)[C@@H]2CCCN2C(=O)[C@@H](N)CSSC[C@@H](C(=O)O)NC(=O)[C@H](C)NC(=O)[C@@H]2CCCN2C(=O)[C@H](CCCNC(=N)N)NC(=O)[C@H](CC(=O)O)NC(=O)[C@H](CCC(=O)O)NC1=O [RPA] (H-CPIEDRPAC-OH; disulfide 1-9 (inferred); N-terminus and C-terminus assumed)

Compound: trypsin
decrease of RPM phage binding to active protease treated HT29 cells (HT29 cells [5]): 90% | average absorbance (MTT incorporation) of treated cells (HT29 cells [6]): 0.175

Compound: CKHLGPQLC (disulfide 1-9 (inferred)) [reference compound]
effect of unlabeled competitor on RPM-FITC staining of HT29 cells (HT29 cells [4]): unaffected | ability of peptide to compete RPM (CPIEDRPMC) phage binding to HT29 cells (HT29 cells [1]): not able to compete | ability of peptide to compete RPM (CPIEDRPMC) phage binding to HT29 cells (HT29 cells [1]; listed as unrelated peptide): failed to block | level of RPM associated phage binding to HT29 cells in presence of competitor (HT29 cells [1]): 100%
